“Also recorded” adds a separate entry of the source. Like-named read-outs stand apart in the source and are kept apart here.
Tests used:
[1] = test system: PMNs isolated from healthy adults; test: poly (I:C)-induced NETosis in PMNs from healthy adults; format: cell-based, human; conditions: poly (I:C) 1 μg/mL, 2 hours
[2] = test system: PMNs isolated from COVID-19 patients; test: poly (I:C)-induced NETosis in PMNs from COVID-19 patients; format: cell-based, human; conditions: poly (I:C) 1 μg/mL, 2 hours
[3] = test system: LPS-induced acute lung inflammation; format: in vivo; conditions: LPS-induced acute lung inflammation model; nNIF given IP
From the text: Thus, nNIF can reduce NETs similar to an FDA approved drug, such as dexamethasone.

healthy neutrophils = format: cell-based, human; conditions: healthy neutrophils pretreated
experimental sepsis = conditions: models of experimental sepsis; cited from earlier work
[4] = test system: PMNs isolated from healthy adults; test: NET formation in healthy adult PMNs induced by COVID-19 patient plasma (confocal microscopy, cell-free DNA fluorescence assay); format: cell-based, human; conditions: peptide 1 nM, 1-hour preincubation, undiluted COVID-19 plasma 2 hours

Substance | NETosis induction in vitro [1] | Increase in NETosis compared to elevated baseline levels [2] | In vivo efficacy: NETs or cells undergoing early NETosis (cytospin) [3] | Inhibition of COVID-19 plasma induced NETosis (healthy neutrophils; high-inducing pooled plasma (>3-fold induction)) | Inhibition of COVID-19 plasma induced NETosis (healthy neutrophils; medium-inducing pooled plasma (2-3 fold induction)) | Disease severity (experimental sepsis) | NETosis (experimental sepsis) | Survival (experimental sepsis) | NETosis induced in vitro by COVID-19 plasma [4]
poly (I:C) | induces NETosis | 2 fold |  |  |  |  |  |  | 
KAVLTIDEKGTEAAGAMFLEAIPMSIPPEVKFNKPFVFLMIEQNTKSPLFMGKVVNPTQK (listed as Homo sapiens) [nNIF] |  |  | very good efficacy | clearly observed | clearly observed | decreased disease severity | decrease in NETosis | improved survival | significantly decreases NETosis; also recorded: inhibits NETs induced by COVID-19 plasma

Source: patent US20230158108A1 (priority 2020, published 2023)
